{"source": "patent EP0302967A2", "about": "“Quinazoline derivative, processes for its production, and cerebral dysfunction remedying agent comprising it as active ingredient” (priority 1987, dated 1989)", "key": {"[1]": {"test_system": "Male mice of the ddY strain", "assay": "Anti-scopolamine-induced amnesia activity (one-trial passive avoidance response)", "format": "in vivo", "settings": "scopolamine hydrobromide 1 mg/kg i.p.; for Mean latency (seconds): p<0.01", "protocol": "Male mice of the ddY strain (body weight 20-25g, 20 per group) were used, and the activity of the test compound on deficit of memory induced by scopolamine hydrobromide (a muscarinic acetylcholine receptor antagonist) was examined using one-trial passive avoidance response as an index. Using the same experimental device as in Test Example 1, the same acquisition trial and retrieval trial as in Test Example 1 were carried out (one-trial passive avoidanse response). Scopolamine hydrobromide (1 mg/kg) was intra peritoneally (i.p.) administered to the animals 20 minutes before the acquisition trial. The compound of the invention (dihydrochloride) was dissolved in 1 % gum arabic solution, and intraperitoneally administered immediately after the acquisition trial, and orally (p.o.) administered 60 minutes before the acquisition trial. A 1% solution of gum arabic was administered to the control group."}, "[2]": {"test_system": "Male mice of the ddY strain", "assay": "Anti-hypoxic activity: brain protection against complete ischemia by decapitation (gasping persistent time)", "format": "in vivo", "settings": "decapitated one hour later, control group taken as 100 %, mean ± standard error", "protocol": "Male mice of the ddY strain (body weight 20-25g, 5 per group) were orally given the compound of the invention (dihydrochloride) dissolved in 1% gum arabic solution. One hour later, the mice were decapitated, and the time elapsed until a gasping-like mouth opening movement appearing after decapitation ceased (gasping persistent time) was measured, and compared with that obtained with the control group (the group to which 1% gum arabic solution was administered)."}, "[3]": {"assay": "Acute toxicity (LD50 by the Weil method)", "settings": "male, ddY, mouse, in vivo, dead animals counted one week later, read-out: LD₅₀", "protocol": "Male ddY mice (body weight 20 - 26 g, 5 per group) were allowed to fast overnight. The compound of this invention (dihydrochloride) dissolved in distilled water was orally (p.o.) administered. From the number of dead animals counted one week later, the LD₅₀ (p.o.) was calculated by the Weil method.\nThen, the compound of this invention (dihydrochloride) was dissolved in saline and intraperitoneally (i.p.) administered to the mice, and the LD₅₀ value (i.p.) was measured similarly."}, "[4]": {"test_system": "Male mice of the ddY strain", "assay": "Anti-hypoxic activity: brain protection against normobaric hypoxia (survival time in 100% nitrogen)", "format": "in vivo", "settings": "one hour before 100% nitrogen, control group taken as 100 %, mean ± standard error, p<0.01", "protocol": "Male mice of the ddY strain (body weight 20-25g, 5 per group) were orally administered with the compound of the invention (dihydrochloride) dissolved in a 1% gum arabic solution. One hour after the administration, the mouse was put in a transparent plastic container (capacity 27 liters) through which 100% nitrogen was passed at a rate of 80 liters/min. The time elapsed until the animal died (the survival time) was measured, and compared with that obtained with the control group (the group to which 1% gum arabic solution was administered)."}, "brain homogenate": {"test_system": "brain homogenate", "assay": "Lipid peroxide formation inhibiting activity (antioxidant activity), MDA formed by autoxidation", "format": "biochemical, Rats", "settings": "for Antioxidant activity (n=4) Mean ± standard error (%): percent inhibition of autoxidation on the brain homogenate, 37 °C, 30 minutes", "protocol": "The effect of the test compound on the formation of lipid peroxide by autoxidation was determined by the amount of malondialdehyde (MDA) formed.\nRats were decapitated, and the cerebrum was taken out and homogenized with 4 ml, per gram of the cerebrum, of 50 mM phosphate saline-buffer (pH 7.4) and centrifuged (2800 rpm, 10 minutes). The supernatant was taken into a 10 ml test tube to obtain a brain homogenate. It was frozen at -70 °C and stored.\nThe brain homogenate was defrozen, and immediately then, diluted to 10-fold with the aforesaid phosphate saline-buffer. A 2 ml portion of the dilution was taken into a 10 ml test tube cooled with ice, and used to measure its antioxidant activity. Twenty microliters of an aqueous solution of the compound of this invention (dihydrochloride) was added. The amount of MDA immediately after the addition was measured as shown below (MDA 0 time). The mixture was incubated at 37 °C for 30 minutes. The reaction was stopped by adding 400 microliters of 35% perchloric acid solution. After cooling with ice, the cooled mixture was centrifuged (2800 rpm, 10 minutes). To 1 ml of the supernatant, 0.5 ml of 0.5 % thiobarbituric acid solution dissolved in 50% acetic acid solution was added, and the mixture was heated at 100 °C for 15 minutes. After cooling with ice, the absorbance of the solution at 532 nm was measured, and the amount of MDA formed was determined (MDAtest).\nAs a control, the amount of MDA (MDAcont) was determined as above.\nThe antioxidant activity of the compound of the invention was expressed in terms of percent inhibition of autoxidation on the brain homogenate. The calculation was based on the following equation. [formula]"}, "[5]": {"test_system": "Male mice of the ddY strain", "assay": "Anti-CO2-induced amnesia activity (one-trial passive avoidance response)", "format": "in vivo", "settings": "retrieval 24 hours later, max 300 seconds", "protocol": "Male mice of the ddY strain (body weight 20 - -30 g, 30 per group) were used. Anti-CO₂-induced amnesia activity was determined by using one-trial passive avoidance response as an index. The experimental device consisted of two compartments, one illuminated and the other dark, with a guillotine door in the boundary of the two compartments permitting free passage of the mice through it. In an acquisition trial, a mouse was placed in the illuminated compartment and allowed to enter the dark one. As soon as the mouse entered the dark compartment, the door was shut, and an electrical shock (0.5 mA, 0.2 sec.) was applied through the grid floor. Thus, the mouse was caused to learn that it receives an electric shock upon entering the dark room. In a retrieval trial, the mouse was again placed in the illuminated compartment 24 hours after the acquisition trial, and the time elapsed until it entered the dark compartment (response latency) was measured to an extent of 300 seconds at the longest. (One-trial passive avoidance response) Treatment of inducing amnesia by carbon dioxide was performed by putting the mouse in a 1.6-liter plastic container having a gas intake opening and an gas discharging opening immediately after the acquisition trial, and passing 100% carbon dioxide gas for 14 seconds at a flow rate of 8 liters/min. […]"}}, "note": "Read-outs that look alike come from different tables or passages of the source. Marks after values point to notes of the source that are not given here."}
{"smiles": "C=CCN1CCN(c2nc(OCCCCC)c3ccccc3n2)CC1.Cl.Cl", "note": "[Compound of the invention (2HCl), 2-(4-allyl-1-piperazinyl)-4-pentyloxyquinazoline dihydrochloride]", "values": [{"measurement": "Mean latency (seconds)", "setting": "[1]; 3 mg/kg (as free base) i.p. immediately after acquisition trial, control group 92.0", "value": "190.4 **2) seconds"}, {"measurement": "Mean latency (seconds)", "setting": "[1]; 10 mg/kg (as free base) i.p. immediately after acquisition trial, control group 92.0", "value": "185.1 ** seconds"}, {"measurement": "Mean latency", "setting": "[1]; 10 mg/kg (as free base) p.o. 60 minutes before acquisition trial, control group 63.1", "value": 59.8, "unit": "s"}, {"measurement": "Mean latency (seconds)", "setting": "[1]; 30 mg/kg (as free base) i.p. immediately after acquisition trial, control group 92.0", "value": "208.7 ** seconds"}, {"measurement": "Mean latency (seconds)", "setting": "[1]; 30 mg/kg (as free base) p.o. 60 minutes before acquisition trial, control group 63.1", "value": "144.6 ** seconds"}, {"measurement": "Mean gasping persistent time (%)", "setting": "[2]; 10 mg/kg orally", "value": "107 ± 6", "unit": "%"}, {"measurement": "Mean gasping persistent time (%)", "setting": "[2]; 30 mg/kg orally, p<0.01", "value": "139 ± 6 ** 2) %"}, {"measurement": "Mean gasping persistent time (%)", "setting": "[2]; 100 mg/kg orally, p<0.01", "value": "187 ± 8", "unit": "%"}, {"measurement": "LD50 at 1 week", "setting": "[3]; ip, in saline", "value": 220, "unit": "mg/kg"}, {"measurement": "LD50 at 1 week", "setting": "[3]; po, in distilled water, fasted overnight", "value": 1270, "unit": "mg/kg"}, {"measurement": "Survival time (%)", "setting": "[4]; 10 mg/kg orally", "value": "122 ± 5 [1)**2)] %"}, {"measurement": "Survival time (%)", "setting": "[4]; 30 mg/kg orally", "value": "151 ± 7", "unit": "%"}, {"measurement": "Antioxidant activity (n=4) Mean ± standard error (%)", "setting": "brain homogenate; 10 µM", "value": "6.4 ± 7.7", "unit": "%"}, {"measurement": "Antioxidant activity (n=4) Mean ± standard error (%)", "setting": "brain homogenate; 30 µM", "value": "27.1 ± 6.8", "unit": "%"}, {"measurement": "Antioxidant activity (n=4) Mean ± standard error (%)", "setting": "brain homogenate; 100 µM", "value": "77.9 ± 3.1", "unit": "%"}, {"measurement": "Antioxidant activity (n=4) Mean ± standard error (%)", "setting": "brain homogenate; 300 µM", "value": "93.4 ± 2.2", "unit": "%"}, {"measurement": "IC50", "setting": "brain homogenate; inhibition of autoxidation (MDA formation) on the brain homogenate, read-out: 50% inhibition concentration (IC₅₀)", "value": 52, "unit": "µM"}, {"measurement": "Mean latency", "setting": "[5]; 10 mg/kg orally 60 minutes before acquisition trial, control group 155.3", "value": 185.8, "unit": "s"}, {"measurement": "Mean latency (seconds)", "setting": "[5]; 30 mg/kg orally 60 minutes before acquisition trial, control group 155.3, p<0.01", "value": "230.0**1) seconds"}]}
